Where “and” joins values, the source holds several entries; their conditions need not be identical. Identical values can stand only once.
Tests used:
tyrosinase = conditions: natural product; cited from earlier work
[1] = Stability in aqueous solution (HPLC main peak area); type: physicochemical; conditions: room temperature, 275 nm
Protocol: Table S1. Gradient elution of the mobile phase for the synthetic compounds using HPLC.
The mobile phase consisted of Solution A (0.1% acetic acid in water) and Solvent B
(acetonitrile), with gradient elution employed throughout the analysis. The flow rate was
Time Solution (A) % Solution (B) %
Table S2. The stability of the synthesized compounds in aqueous solution.
Each compound (2.0 mg) was dissolved in an appropriate volume of water to achieve
an approximate concentration of 1-2 mg/mL. The solutions were then subjected to
ultrasonic treatment, filtered, and analyzed. During stability testing, varying degrees of
To facilitate analysis, these
samples were reconstituted with additional water or treated ultrasonically, filtered, and
absorption at approximately 275 nm, which was selected for detection. The integration
method employed was based on the minimum area approach to accurately determine the
retention time (min) and main peak area (%) of all synthesized compounds. The prepared
samples were stored at room temperature, and their stability in aqueous solution was
evaluated at 0, 2, 4 days, and 2 months using the aforementioned analytical method.
Compounds 0 day 2 day 4 days 2 months RT Area RT Area RT Area RT Area

[2] = DPPH free radical-scavenging assay; conditions: 0.2 mM DPPH in EtOH, 15 min, room temperature, 515 nm; read-out: SC50 ± SD (DPPH radical scavenging)
Protocol: The DPPH radical-scavenging activity was evaluated using Blois’ method. A 0.2 mM solution of DPPH in ethanol (EtOH) was prepared as the working reagent. Each sample (20 μL) was introduced into a 96-well plate, followed by the addition of 180 μL of the DPPH solution. […] The SC50 value, representing the concentration required to scavenge 50% of the DPPH radicals, was determined for each sample. Each measurement was performed in triplicate, and the mean value was reported. Ascorbic acid served as the positive control throughout the experiment.

mushroom tyrosinase = target: T1, mushroom tyrosinase (Agaricus bisporus, UniProt C7FF04); test: Tyrosinase inhibition assay; type: biochemical; conditions: L-tyrosine substrate, 37 °C 10 min, absorbance 490 nm; mean ± SEM
T1 construct: purchased Sigma Chemicals (St. Louis, MO, USA)
T1 sequence (C7FF04 1-392): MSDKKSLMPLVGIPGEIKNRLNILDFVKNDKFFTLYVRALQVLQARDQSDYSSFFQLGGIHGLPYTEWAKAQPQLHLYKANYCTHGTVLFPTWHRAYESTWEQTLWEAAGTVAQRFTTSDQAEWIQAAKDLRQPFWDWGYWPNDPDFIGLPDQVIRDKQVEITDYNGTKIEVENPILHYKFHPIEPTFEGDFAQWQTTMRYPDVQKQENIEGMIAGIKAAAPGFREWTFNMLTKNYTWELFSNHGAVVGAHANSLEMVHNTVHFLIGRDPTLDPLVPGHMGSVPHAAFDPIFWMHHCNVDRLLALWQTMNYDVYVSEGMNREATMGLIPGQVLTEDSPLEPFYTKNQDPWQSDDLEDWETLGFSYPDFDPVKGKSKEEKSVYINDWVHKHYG
Protocol: In the enzymatic assay, a reaction mixture was prepared containing 0.1 M potassium phosphate buffer (pH 6.8), 2 mM L-tyrosine, and 2500 units of tyrosinase. Samples at various concentrations were dispensed as 20 µL aliquots into a 96-well plate. Each well received 130 µL of substrate solution (buffer and L-tyrosine), followed by 5 µL of tyrosinase and 45 µL of buffer solution.

B16F10 melanoma cells = conditions: cited from earlier work
mTYR = target: T2, mTYR (Agaricus bisporus, UniProt C7FF04); test: Kinetic mechanism analysis (Lineweaver–Burk plots); type: biochemical, mushroom
T2 construct: purchased Sigma Chemicals (St. Louis, MO, USA)
T2 sequence (C7FF04 1-392): as above
Protocol: Due to the potent inhibition of mushroom tyrosinase by compound 4b, kinetic studies were conducted using Lineweaver–Burk double reciprocal plots to elucidate its inhibitory mechanisms. […] concentrations (0 μM, 3 μM, 6 μM, and 12 μM) of the indole derivative 4b in the presence of varying L-tyrosine concentrations (0.1, 0.2, 0.4, 0.6, 0.8, 1 mM) were employed for the kinetic analyses. The Lineweaver–Burk plots generated four distinct lines with different slopes corresponding to each concentration of the derivative. […] Specifically, the KM values were 1.515, 7.846, 15.740, and 23.586 mM at 0, 3, 6, and 12 μM of 4b, respectively.
The kinetic experiment was intended to elucidate the inhibitory behavior of compound 4b against tyrosinase. Four different doses of 4b (0, 3, 6, and 12 µM) were investigated to characterize its inhibition pattern with respect to tyrosinase activity. Various concentrations of L-tyrosine substrate ranging from 0.1 to 1 mM were employed across all experiments. The initial incubation time and reading period mirrored those outlined in the anti-tyrosinase inhibition method. The maximum initial velocity (V₀) was determined from the linear phase of absorbance measurements taken over 5 min following the addition of the enzyme solution. The inhibition mode was further delineated using a Lineweaver–Burk plot, where the reciprocal of velocities (1/V) was plotted against the reciprocal of substrate concentrations utilized.

## OCCc1c[nH]c2ccccc12 [indole-3-ethanol]
tyrosinase
  Tyrosinase inhibition activity: significant tyrosinase inhibition activity

## Cn1cc(/C=N/NC(N)=S)c2ccccc21 [Compound 4g, (E)-2-((1-methyl-1H-indol-3-yl)methylene)hydrazine-1-carbothioamide]
[1]; 0 day
  Main peak area (HPLC), stability in aqueous solution: 97.47%
[1]; 2 months
  Main peak area (HPLC), stability in aqueous solution: 95.20%
[1]; 2 day
  Main peak area (HPLC), stability in aqueous solution: 94.12%
[1]; 4 days
  Main peak area (HPLC), stability in aqueous solution: 94.58%
[2]
  EC50: 493.5 ± 0.7 µM
Mushroom tyrosinase
  IC50: 155.5 ± 1.07 µM
other
  melting point: 199 to 201 °C

## O=C(O)Cc1c[nH]c2ccccc12 [indole-3-acetic acid]
B16F10 melanoma cells
  Effect on B16F10 melanoma cells: inhibitory effects

## O=C(O)c1c[nH]c2ccccc12 [indole-3-carboxylic acid]
B16F10 melanoma cells
  Effect on B16F10 melanoma cells: inhibitory effects

## COc1ccc2c(c1)c(/C=N/NC(N)=S)cn2C [Compound 4h, (E)-2-((5-methoxy-1-methyl-1H-indol-3-yl)methylene)hydrazine-1-carbothioamide]
[1]; 0 day
  Main peak area (HPLC), stability in aqueous solution: 96.18%
[1]; 2 months
  Main peak area (HPLC), stability in aqueous solution: 90.15%
[1]; 2 day
  Main peak area (HPLC), stability in aqueous solution: 95.87%
[1]; 4 days
  Main peak area (HPLC), stability in aqueous solution: 95.83%
[2]
  EC50: 340.2 ± 3.1 µM
Mushroom tyrosinase
  IC50: 163 ± 3.81 µM
other
  melting point: 203 to 205 °C

## O=C1O[C@H]([C@@H](O)CO)C(O)=C1O [Ascorbic acid, reference compound]
[2]
  EC50: 37.9 ± 0.3 µM

## COC(=O)c1ccc2[nH]cc(/C=N/NC(N)=S)c2c1 [Compound 4j, Methyl(E)-3-((2-carbamothioylhydrazineylidene)methyl)-1H-indole-5-carboxylate]
[1]; 0 day
  Main peak area (HPLC), stability in aqueous solution: 97.37%
[1]; 2 months
  Main peak area (HPLC), stability in aqueous solution: 90.86%
[1]; 2 day
  Main peak area (HPLC), stability in aqueous solution: 97.13%
[1]; 4 days
  Main peak area (HPLC), stability in aqueous solution: 96.75%
[2]
  EC50: 275.7 ± 2.7 µM
Mushroom tyrosinase
  IC50: 103 ± 2.72 µM
other
  melting point: 247 to 249 °C

## Cn1cc(/C=N/NC(N)=S)c2cc(Br)ccc21 [Compound 4i, (E)-2-((5-bromo-1-methyl-1H-indol-3-yl)methylene)hydrazine-1-carbothioamide]
[1]; 0 day
  Main peak area (HPLC), stability in aqueous solution: 90.17%
[1]; 2 months
  Main peak area (HPLC), stability in aqueous solution: 65% and 65.06%
[1]; 2 day
  Main peak area (HPLC), stability in aqueous solution: 88.52%
[1]; 4 days
  Main peak area (HPLC), stability in aqueous solution: 88.22%
[2]
  EC50: > 1000 µM
Mushroom tyrosinase
  IC50: 46.3 ± 3.11 µM
other
  melting point: 220 to 222 °C

## NC(=S)N/N=C/c1c[nH]c2ccc(Cl)cc12 [Compound 4c, (E)-2-((5-chloro-1H-indol-3-yl)methylene)hydrazine-1-carbothioamide]
[1]; 0 day
  Main peak area (HPLC), stability in aqueous solution: 96.24%
[1]; 2 months
  Main peak area (HPLC), stability in aqueous solution: 91.89%
[1]; 2 day
  Main peak area (HPLC), stability in aqueous solution: 96.04%
[1]; 4 days
  Main peak area (HPLC), stability in aqueous solution: 95.74%
[2]
  EC50: 659.2 ± 0.5 µM
Mushroom tyrosinase
  IC50: 13.2 ± 1.68 µM
other
  melting point: 212 to 214 °C

## NC(=S)N/N=C/c1c[nH]c2ccccc12 [Compound 4a, (E)-2-((1H-indol-3-yl)methylene)hydrazine-1-carbothioamide]
[1]; 0 day
  Main peak area (HPLC), stability in aqueous solution: 97.61%
[1]; 2 months
  Main peak area (HPLC), stability in aqueous solution: 91.27%
[1]; 2 day
  Main peak area (HPLC), stability in aqueous solution: 95.84%
[1]; 4 days
  Main peak area (HPLC), stability in aqueous solution: 95.76%
Mushroom tyrosinase
  IC50: 7.9 ± 4.07 µM

## CCn1cc(/C=N/NC(N)=S)c2ccccc21 [Compound 4f, (E)-2-((1-ethyl-1H-indol-3-yl)methylene)hydrazine-1-carbothioamide]
[1]; 0 day
  Main peak area (HPLC), stability in aqueous solution: 97.80%
[1]; 2 months
  Main peak area (HPLC), stability in aqueous solution: 92.18%
[1]; 2 day
  Main peak area (HPLC), stability in aqueous solution: 96.99%
[1]; 4 days
  Main peak area (HPLC), stability in aqueous solution: 96.45%
[2]
  EC50: > 1000 µM
Mushroom tyrosinase
  IC50: 127 ± 2.85 µM
other
  melting point: 188 to 190 °C

## NC(=S)N/N=C/c1c[nH]c2ccc(F)cc12 [Compound 4b, (E)-2-((5-fluoro-1H-indol-3-yl)methylene)hydrazine-1-carbothioamide]
[1]; 0 day
  Main peak area (HPLC), stability in aqueous solution: 97.21%
[1]; 2 months
  Main peak area (HPLC), stability in aqueous solution: 91.69%
[1]; 2 day
  Main peak area (HPLC), stability in aqueous solution: 97.10%
[1]; 4 days
  Main peak area (HPLC), stability in aqueous solution: 97.07%
[2]
  EC50: 544.3 ± 1.5 µM
Mushroom tyrosinase
  IC50: 5.9 ± 2.47 µM
mTYR; Lineweaver–Burk plots, versus L-tyrosine
  Inhibition mode: competitive
mTYR; at 6 μM of 4b
  Ki: 0.0568 µM
mTYR; at 12 μM of 4b
  Ki: 0.0206 µM
mTYR; consistent across 0-12 μM 4b, L-tyrosine 0.1-1 mM
  Vmax: 0.0135 mM/min

## COc1ccc2[nH]cc(/C=N/NC(N)=S)c2c1 [Compound 4e, (E)-2-((5-methoxy-1H-indol-3-yl)methylene)hydrazine-1-carbothioamide]
[1]; 0 day
  Main peak area (HPLC), stability in aqueous solution: 98.00%
[1]; 2 months
  Main peak area (HPLC), stability in aqueous solution: 94.97%
[1]; 2 day
  Main peak area (HPLC), stability in aqueous solution: 97.87%
[1]; 4 days
  Main peak area (HPLC), stability in aqueous solution: 96.87%
[2]
  EC50: 603.4 ± 1 µM
Mushroom tyrosinase
  IC50: 30.1 ± 1.77 µM

## O=Cc1c[nH]c2ccccc12 [indole-3-carbaldehyde]
tyrosinase
  Tyrosinase inhibition activity: significant tyrosinase inhibition activity

## NC(=S)N/N=C/c1c[nH]c2ccc(Br)cc12 [Compound 4d, (E)-2-((5-bromo-1H-indol-3-yl)methylene)hydrazine-1-carbothioamide]
[1]; 0 day
  Main peak area (HPLC), stability in aqueous solution: 97.79%
[1]; 2 months
  Main peak area (HPLC), stability in aqueous solution: 91.28%
[1]; 2 day
  Main peak area (HPLC), stability in aqueous solution: 97.41%
[1]; 4 days
  Main peak area (HPLC), stability in aqueous solution: 96.80%
[2]
  EC50: 769 ± 2.6 µM
Mushroom tyrosinase
  IC50: 14.9 ± 2.86 µM
other
  melting point: 215 to 217 °C

## NC(=S)N/N=C/c1c[nH]c2ccc(O)cc12 [Compound 4k, (E)-2-((5-hydroxy-1H-indol-3-yl)methylene)hydrazine-1-carbothioamide]
[1]; 0 day
  Main peak area (HPLC), stability in aqueous solution: 96.00%
[1]; 2 months
  Main peak area (HPLC), stability in aqueous solution: 94.13%
[1]; 2 day
  Main peak area (HPLC), stability in aqueous solution: 95.85%
[1]; 4 days
  Main peak area (HPLC), stability in aqueous solution: 95.32%
[2]
  EC50: 24.6 ± 3.7 µM
Mushroom tyrosinase
  IC50: 43.3 ± 3.46 µM
other
  melting point: 261 to 263 °C
